Measurements published in patent publication US8361998B2, “Compounds and their use as IKACh blockers” (AstraZeneca AB, priority 2010, dated 2013).
pIC50: −log10 of the molar value.

Molecular target: T1, human cardiac ion channel proteins hKir3.1/Kir3.4 (Homo sapiens, UniProt P48544+P48549)
T1 construct: expressed in transfected cells
T1 sequence (P48549 1-501): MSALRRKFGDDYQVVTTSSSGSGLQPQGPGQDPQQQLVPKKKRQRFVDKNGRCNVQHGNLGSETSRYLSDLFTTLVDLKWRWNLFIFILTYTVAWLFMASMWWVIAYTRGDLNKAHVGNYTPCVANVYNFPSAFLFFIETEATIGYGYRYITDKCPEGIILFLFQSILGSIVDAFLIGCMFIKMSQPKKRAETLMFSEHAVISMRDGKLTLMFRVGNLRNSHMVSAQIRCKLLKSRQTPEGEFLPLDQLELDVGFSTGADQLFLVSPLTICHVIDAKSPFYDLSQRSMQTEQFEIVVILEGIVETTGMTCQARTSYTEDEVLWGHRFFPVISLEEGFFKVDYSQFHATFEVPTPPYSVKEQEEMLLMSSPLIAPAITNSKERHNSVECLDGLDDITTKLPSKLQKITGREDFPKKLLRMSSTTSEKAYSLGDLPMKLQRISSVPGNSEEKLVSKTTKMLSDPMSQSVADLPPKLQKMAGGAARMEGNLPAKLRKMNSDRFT
T1 sequence (P48544 1-419): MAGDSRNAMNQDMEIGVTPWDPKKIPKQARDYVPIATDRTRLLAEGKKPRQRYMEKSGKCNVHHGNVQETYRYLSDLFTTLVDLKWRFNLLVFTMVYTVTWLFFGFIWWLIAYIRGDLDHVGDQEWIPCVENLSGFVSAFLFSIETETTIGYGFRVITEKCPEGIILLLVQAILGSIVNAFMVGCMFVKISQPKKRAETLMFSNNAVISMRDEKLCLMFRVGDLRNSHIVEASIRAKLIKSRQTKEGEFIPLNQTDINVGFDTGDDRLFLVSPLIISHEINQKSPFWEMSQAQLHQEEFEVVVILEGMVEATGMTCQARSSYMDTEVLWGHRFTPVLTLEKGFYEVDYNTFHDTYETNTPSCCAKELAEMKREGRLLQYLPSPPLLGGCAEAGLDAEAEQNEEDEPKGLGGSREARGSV
Assay: Atomic Absorption Screening (AAS) Rb efflux assay of hKir3.1/Kir3.4 block, carbachol/high K+ stimulated, 10-pt or 7-pt CR
Type: cell-based
Conditions: 7-pt CR (0.037 to 27 μmol/L), AAS Rb efflux, CHO-K1 cells expressing hKir3.1/Kir3.4; mean of >3 replicates; read-out: IKACh IC50 7-pt CR, AAS
Text: Human KCNJ3 encoding Kir3.1 (Genbank acc. No. NM_002239) was inserted between EcoRI and NotI in the pIRESneo3 vector (Clontech Laboratories, Inc. CA, USA). Human KCNJ5 encoding Kir3.4 (Genbank Acc. No. BC069482) was inserted between EcoR1 and Not1 in the pIRESpuro3 vector (Clontech Laboratories, Inc. CA, USA). A Kozak sequence (GCCACC) was introduced before the start codon ATG of both constructs. Chinese Hamster Ovary K1, CHO-FLP/IN, cells (Invitrogen Corporation, Paisley, UK) were transfected simultaneously using Lipofectamine 2000 reagent (Invitrogen Corporation, Paisley, UK). Geneticin 600 μg/mL (Invitrogen Corporation, Paisley, UK) and puromycin 3 μg/mL (BD Bioscience) were added to the cell culture medium 3 days after transfection. Two weeks after transfection, colonies had appeared and were manually picked and sorted to one cell per well in a 96-well plate. Cells were then tested for Kir3.1 and Kir3.4 expression using membrane potential assay, Western Blot and Immunocytochemistry. […] The cell line was re-sorted by flow cytometry and resulting clones were assayed electrophysiologically using IonWorks (Molecular Devices) and later validated on the Q-Patch (Sophion A/S).
The stable cell line was cultured in DMEM/F12 with Glutamax 1 (Invitrogen Corporation, Paisley, UK), supplemented with foetal bovine serum 10%, puromycin 3 μg/mL, hygromycin 300 μg/mL and geneticin 600 μg/mL (Invitrogen Corporation, Paisley, UK). Care was taken not to seed cells at too low density and cells were passaged at approximately 70-80% confluency. Cells used for patch-clamp experiments were prepared by washing using PBS (—Mg, —Ca^2+), 2 times, detached using Accutase (Sigma). For Q-Patch measurements, storage medium was prepared fresh by adding 1.25 mL of 1M Hepes (GibcoBRL) to 50 mL CHO-SFM II medium (GibcoBRL) and detached cells were diluted to 2 million cells/mL in this medium. Frozen (Cryopreserved) cells were used for Atomic Absorption Screening (AAS) and plated poly-D-lysine 384-well plates (Greiner) at a density of 11,000-13,000 cells/well, the day before assay.
The blocking effects of compounds on the human cardiac ion channel proteins hKir3.1/Kir3.4 were assessed in CHO-K1 cells stably expressing the channel proteins using Atomic Absorption Screening (AAS). Cells were washed and then loaded with 25 μL Rb-loading buffer for three hours at 37° C. After that, the cells were washed again and 25 μL of diluted compound was transferred to the cell plate, incubated for 5 min in RT, and then […] of Carbachol/high K+ (10 μM carbachol and 20 mM KCl final concentration) buffer added to stimulate the cells and open the Kir3.1/Kir3.4 channel. After 10 min stimulation, […] of the supernatant was transferred to a new microplate, 45 μL washing buffer added to the supernatant and the level of Rb in the supernatant was then measured using an Aurora ICR 8000. Compounds were studied at concentrations ranging from 0.003 to 67 μmol/L (dilutions by three, 10-pt CR) or from 0.037 to 27 μmol/L (dilutions by three, 7-pt CR).
Stock solutions of compounds were prepared in DMSO 10 mM and stored at RT. Buffers used for AAS contained (in mM): HEPES 20, NaCl 150, MgCl2 1.0, CaCl2 2.0 and NaH2PO4 0.8 and Glucose 10 (wash 1) or KCl 5 and Glucose 5 (wash 2) or KCl 5 (dilution buffer). The High K^+ channel opener buffer contained (in mM): HEPES 20, NaCl 130, MgCl2 1.0, CaCl2 2.0 and NaH2PO4 0.8 together with KCl 20. Solutions used for Q-Patch (extracellular) in mM: NaCl 145, KCl 4, CaCl2 2.0, MgCl2 1.0, HEPES 10 and glucose 10. The high K^+ extra cellular solution used for Q-Patch in mM: NaCl 96.7, KCl 50.7, CaCl2 2.0, MgCl2 1.0, HEPES 10 and glucose 10 while the intra cellular solution used was (in mM): KCl 120, CaCl2 5.374, MgCl2 1.75, EGTA 10, KOH 3.125, HEPES 10, Na2ATP 4.
Results are given as mean IC50 of >4 replicates (10-pt CR, AAS) or >3 replicates (7-pt CR, AAS). Some of the data in Table 1 are mean values of two or more runs. […]

| pIC50 | SMILES |
| --- | --- |
| 4.64 | CC(C)[C@@H](CN1CCCC1)N(C)C(=O)c1cc(F)cc(F)c1 [Example 16.12, (S)-3,5-Difluoro-N-methyl-N-(3-methyl-1-(pyrrolidin-1-yl)butan-2-yl)benzamide] |
| 5.17 | CC(C)[C@@H](CN1CCCC1)N(C)C(=O)c1ccc(F)cc1C(F)(F)F [Example 16.23, (S)-4-Fluoro-N-methyl-N-(3-methyl-1-(pyrrolidin-1-yl)butan-2-yl)-2-(trifluoromethyl)benzamide] |
| 4.77 | Cc1c(F)cccc1C(=O)N(C)[C@H](CN1CCCCC1)C(C)C [Example 16.38, (S)-3-Fluoro-N,2-dimethyl-N-(3-methyl-1-(piperidin-1-yl)butan-2-yl)benzamide] |
| 4.80 | Cc1c(F)cccc1C(=O)N(C)[C@H](CN1CC[C@H](O)C1)C(C)C [Example 16.45, 3-Fluoro-N—((S)-1-((S)-3-hydroxypyrrolidin-1-yl)-3-methylbutan-2-yl)-N,2-dimethylbenzamide] |

Continued, compound first:

| SMILES | pIC50 |
| --- | --- |
| CC(C)[C@@H](CN1CCCCC1)N(C)C(=O)c1ccc(Cl)c(Cl)c1 [Example 16.28, 3,4-Dichloro-N-methyl-N-[(1S)-2-methyl-1-(piperidin-1-ylmethyl)propyl]benzamide] | 6.08 |
| CC(C)[C@@H](CN1CCCC1)N(C)C(=O)c1cccc(Cl)c1 [Example 16.48, (S)-3-Chloro-N-methyl-N-(3-methyl-1-(pyrrolidin-1-yl)butan-2-yl)benzamide] | 5.38 |
| CC(C)[C@@H](CN1CCCC1)N(C)C(=O)c1ccccc1C(F)(F)F [Example 16.20, (S)—N-Methyl-N-(3-methyl-1-(pyrrolidin-1-yl)butan-2-yl)-2-(trifluoromethyl)benzamide] | 4.85 |

Same assay, conditions: 10-pt CR (0.003 to 67 μmol/L), AAS Rb efflux, CHO-K1 cells expressing hKir3.1/Kir3.4; mean of >4 replicates; read-out: IKACh IC50 10-pt CR, AAS

| pIC50 | SMILES |
| --- | --- |
| 6.08 | CCC[C@@H](CN1CC(O)C1)N(C)C(=O)c1ccc(F)c(C)c1 [Example 8.11, (S)-4-Fluoro-N-(1-(3-hydroxyazetidin-1-yl)pentan-2-yl)-N,3-di-methylbenzamide] |
| 4.96 | CN(C(=O)c1ccc(F)c(F)c1)[C@H](CN1CC(O)C1)C1CC1 [Example 9.9, (S)-N-(1-Cyclopropyl-2-(3-hydroxyazetidin-1-yl)ethyl)-3,4-difluoro-N-methylbenzamide] |
| 4.82 | CC(C)[C@@H](CN1CCCC1)N(C)C(=O)c1cc(F)cc(F)c1 [Example 16.12, (S)-3,5-Difluoro-N-methyl-N-(3-methyl-1-(pyrrolidin-1-yl)butan-2-yl)benzamide] |
| 5.77 | CCC[C@@H](CN1CC(OCC#N)C1)N(C)C(=O)c1ccc(Cl)cc1 [Example 31.3, 4-chloro-N-{(2S)-1-[3-(cyanomethoxy)azetidin-1-yl]pentan-2-yl}-N-methylbenzamide] |
| 4.96 | CN(C(=O)c1ccc(F)cc1)[C@@H](CN1CC(O)C1)C1CCC1 [Example 35.5, N-[(1R)-1-Cyclobutyl-2-(3-hydroxyazetidin-1-yl)ethyl]-4-fluoro-N-methylbenzamide] |
| 5.38 | COc1cc(C(=O)N(C)[C@@H](CC(C)C)CN2CC(O)C2)ccc1F [Example 38.5, 4-Fluoro-N-[(2S)-1-(3-hydroxyazetidin-1-yl)-4-methylpentan-2-yl]-3-methoxy-N-methylbenzamide] |
| 5.01 | C[C@@H](CN1CC(O)C1)N(C)C(=O)c1ccc(Cl)cc1 [Example 40.1, (S)-4-Chloro-N-(1-(3-hydroxyazetidin-1-yl)propan-2-yl)-N-methylbenzamide] |
| 5.92 | CN(C(=O)c1ccc(F)c(Cl)c1)[C@H](CN1CC(O)(C2CC2)C1)C1CC1 [Example 9.2, (S)-3-Chloro-N-(1-cyclopropyl-2-(3-cyclopropyl-3-hydroxyazetidin-1-yl)ethyl)-4-fluoro-N-methylbenzamide] |

Second part, the compound before the results:

| SMILES | pIC50 |
| --- | --- |
| Cc1cc(C(=O)N(C)[C@H](CN2CCC(O)CC2)C(C)C)ccc1F [Example 24, (S)-4-Fluoro-N-(1-(4-hydroxypiperidin-1-yl)-3-methylbutan-2-yl)-N,3-dimethylbenzamide] | 5.40 |
| CO[C@H](C)[C@@H](CN1CCCC1)N(C)C(=O)c1cccc(C)c1 [Example 3.2, N-((2R,3R)-3-Methoxy-1-(pyrrolidin-1-yl)butan-2-yl)-N,3-dimethylbenzamide] | 4.70 |
| Cc1cc(C(=O)N(C)[C@H](CN2CCCC2)[C@@H](C)OC(C)(C)C)ccc1F [Example 14, N-((2R,3R)-3-Tert-butoxy-1-(pyrrolidin-1-yl)butan-2-yl)-4-fluoro-N,3-dimethylbenzamide] | 4.80 |
| Cc1cccc(C(=O)N(C)[C@H](CN2CCC2)C(C)C)c1 [Example 1.16, (S)-N-(1-(Azetidin-1-yl)-3-methylbutan-2-yl)-N,3-dimethyl-benzamide] | 4.77 |
| COC[C@@H]1CCCN1C[C@H](C(C)C)N(C)C(=O)c1ccc(OC)cc1 [Example 3.18, 4-Methoxy-N-((S)-1-((S)-2-(methoxymethyl)pyrrolidin-1-yl)-3-methylbutan-2-yl)-N-methylbenzamide] | 5.72 |
| CO[C@H](C)[C@@H](CN1CCCC1)N(C)C(=O)c1ccc(F)c(C)c1 [Example 3.1, 4-Fluoro-N-((2R,3R)-3-methoxy-1-(pyrrolidin-1-yl)butan-2-yl)-N,3-dimethylbenzamide] | 5.13 |
| COC1CCN(C[C@H](C(C)C)N(C)C(=O)c2ccc(F)c(Cl)c2)CC1 [Example 3.9, (S)-3-Chloro-4-fluoro-N-(1-(4-methoxypiperidin-1-yl)-3-methylbutan-2-yl)-N-methylbenzamide] | 5.52 |

Same assay, conditions: printed as IC50 >67 μM in the 10-pt CR assay or IC50 >27 μM in the 7-pt CR assay; assay format per compound not stated; read-out: IC50

| pIC50 | SMILES |
| --- | --- |
| < 4.57 | CC(C)[C@H](CN1CCCC1)N(C)C(=O)c1cccc(C#N)c1 [3-Cyano-N-methyl-N-[(1R)-2-methyl-1-(pyrrolidin-1-ylmethyl)propyl]benzamide] |
